Assay results as given in US4061862A, “Derivatives of 7-(cyclized)phenylglycyl-3-triazolo-thio methyl cephalosporin” (priority 1976, dated 1977).
In brackets after ≈: the same amount, converted by molar mass. Like-named read-outs stand apart in the source and are kept apart here.

Experiments:
[1] = Bio-assay (mcg./mg.)
Method: 7-[D-α-amino-α-(p-hydroxyphenyl)acetamido]-3-(1,2,3-triazol-5-ylthiomethyl)-3-cephem-4-carboxylic acid methanol solvate (15 g.) was slurried in 60 ml. of water. The pH was raised to 6.5 by addition of 4N NaOH and the mixture was passed through a 200 mesh screen. The reaction mixture was slurried at room temperature for 2 hours, the pH being maintained at 6.5 during this period. The crystals were removed by filtration, washed with 20 ml. of water and air dried at 37° C. for 24 hours to give 11.5 g. of title crystalline product. Bio assay = 924 mcg./mg. (average % H2 O, K.F. = 5.26).
7-[D-α-amino-α-(p-hydroxyphenyl)acetamido]-3-(1,2,3-triazol-5-ylthiomethyl)-3-cephem-4-carboxylic acid methanol solvate (200 mesh; 10.0 g.) substantially free of propylene glycol is slurried in 30-40 ml. of deionized water at ambient room temperature (20°-25° C.) to give a pH 3-4 aqueous suspension. NaOH (40%) is slowly added with rapid stirring to bring the pH to 6.3-6.7. The mixture is slurried at pH 6.3-6.7 for 2 hours. The crystals are removed by filtration, washed with water and air dried at room temperature for 24 hours to give a 75-80% weight yield of 950-1000 mcg./mg. crystals of 7-[D-α-amino-α-(p-hydroxyphenyl)acetamido]-3-(1,2,3-triazol-5-ylthiomethyl)-3-cephem-4-carboxylic acid dihydrate. […] H2 O, K.F. = 6.56.

[2] = Water solubility; format: physicochemical
Method: The sodium and potassium salts of formula I may be dissolved in water to form relatively concentrated solutions of at least 250 mg./ml. of activity. Concentrations of 250 mg./ml. of activity (pH 5.7-7.2) of these salts have acceptable aqueous stabilities.
g. Water solubility = Approximately 10 mg./ml. in water at 23° C.
3. Solubility = greater than 400 mg./ml.

[3] = Liquid chromatography, % free BL-S640 present (hydrolysis in solution); format: physicochemical; details: 1 mg./ml.
Method: 5. Liquid Chromatography (concentration = 1 mg./ml.)
Time in Hours % Free BL-S640 Present

[4] = system: S. pneumoniae A9585; assay: Antibiotic spectrum in nutrient broth, MIC; format: cell-based; details: Streptococcus pneumoniae, 10^-3 dilution of overnight culture, 45% AAB + 5% serum + 50% broth, BL-S1052 adjusted for 97.5% content of BL-S640
Excerpt: (§1) Antibiotic Spectrum in Nutrient Broth
(§2) *45% AAB + 5% serum + 50% broth listed above.
(§3) **Dilution of overnight broth culture.
(§4) ^(1) Adjusted for 97.5% content of BL-S640. In other words, the
(§5) numerical values are lowered, i.e. improved. This adjustment was also mad
(§6) in the tests reported below or in the alternative, a larger weight was
(§7) used to provide equivalent dosage.

[5] = system: Str. pyogenes A9604; assay: Antibiotic spectrum in nutrient broth, MIC; format: cell-based; details: Streptococcus pyogenes, 10^-3 dilution of overnight culture, 45% AAB + 5% serum + 50% broth, BL-S1052 adjusted for 97.5% content of BL-S640
Excerpt: as §1, §2, §3, §4, §5, §6, §7

[6] = system: E. coli A9675; assay: Antibiotic spectrum in nutrient broth, MIC; format: cell-based; details: Escherichia coli, 10^-4 dilution, BL-S1052 adjusted for 97.5% content of BL-S640
Excerpt: as §1, §3, §4, §5, §6, §7

[7] = system: E. coli Juhl A15119; assay: Antibiotic spectrum in nutrient broth, MIC; format: cell-based; details: Escherichia coli, JUHLA15119; 10^-4 dilution; BL-S1052 adjusted for 97.5% content of BL-S640
Excerpt: as §1, §3, §4, §5, §6, §7

[8] = system: Ent. cloacae A9656; assay: Antibiotic spectrum in nutrient broth, MIC; format: cell-based; details: Enterobacter cloacae, 10^-4 dilution, BL-S1052 adjusted for 97.5% content of BL-S640
Excerpt: as §1, §3, §4, §5, §6, §7

[9] = system: Ent. cloacae A9657; assay: Antibiotic spectrum in nutrient broth, MIC; format: cell-based; details: Enterobacter cloacae, 10^-4 dilution, BL-S1052 adjusted for 97.5% content of BL-S640
Excerpt: as §1, §3, §4, §5, §6, §7

[10] = system: K. pneumoniae A15130; assay: Antibiotic spectrum in nutrient broth, MIC; format: cell-based; details: Klebsiella pneumoniae, 10^-4 dilution, BL-S1052 adjusted for 97.5% content of BL-S640
Excerpt: as §1, §3, §4, §5, §6, §7

[11] = system: K. pneumoniae A9977; assay: Antibiotic spectrum in nutrient broth, MIC; format: cell-based; details: Klebsiella pneumoniae, 10^-4 dilution, BL-S1052 adjusted for 97.5% content of BL-S640
Excerpt: as §1, §3, §4, §5, §6, §7

[12] = system: Pr. mirabilis A9900; assay: Antibiotic spectrum in nutrient broth, MIC; format: cell-based; details: Proteus mirabilis, 10^-4 dilution, BL-S1052 adjusted for 97.5% content of BL-S640
Excerpt: as §1, §3, §4, §5, §6, §7

[13] = system: Ps. Aeruginosa A9843A; assay: Antibiotic spectrum in nutrient broth, MIC; format: cell-based; details: Pseudomonas aeruginosa
Excerpt: as §1, §3, §4, §5, §6, §7

[14] = system: S. aureus Meth-Res A15097; assay: Antibiotic spectrum in nutrient broth, MIC; format: cell-based; details: Staphylococcus aureus; 10^-3 dilution; BL-S1052 adjusted for 97.5% content of BL-S640
Excerpt: as §1, §3, §4, §5, §6, §7

[15] = system: S. aureus Smith A9537; assay: Antibiotic spectrum in nutrient broth, MIC; format: cell-based; details: Staphylococcus aureus, BL-S1052 adjusted for 97.5% content of BL-S640
Excerpt: as §1, §3, §4, §5, §6, §7

[16] = system: Sal. enteritidis A9531; assay: Antibiotic spectrum in nutrient broth, MIC; format: cell-based; details: Salmonella enterica, 10^-4 dilution, BL-S1052 adjusted for 97.5% content of BL-S640
Excerpt: as §1, §3, §4, §5, §6, §7

[17] = system: Ser. marcescens A20019; assay: Antibiotic spectrum in nutrient broth, MIC; format: cell-based; details: Serratia marcescens, 10^-4 dilution, BL-S1052 adjusted for 97.5% content of BL-S640
Excerpt: as §1, §3, §4, §5, §6, §7

[18] = system: Ent. cloacae A9659; assay: Antibiotic spectrum in nutrient broth, MIC; format: cell-based; details: Enterobacter cloacae, 10^-4 dilution, BL-S1052 adjusted for 97.5% content of BL-S640
Excerpt: as §1, §3
(§8) This adjustment was also mad
as §6, §7

[19] = system: Pr. morganii A15153; assay: Antibiotic spectrum in nutrient broth, MIC; format: cell-based; details: Morganella morganii, 10^-4 dilution, BL-S1052 adjusted for 97.5% content of BL-S640
Excerpt: as §1, §3, §8, §6, §7

[20] = system: S. aureus BX1633; assay: Antibiotic spectrum in nutrient broth, MIC; format: cell-based; details: Staphylococcus aureus
Excerpt: as §1, §3, §8, §6, §7

[21] = Mouse blood levels after IM administration; format: in vivo; details: IM 10 mg./kg.
Method: Mouse Blood Levels after IM
Administration of 10 mg./kg. Body Weight
Blood Levels (mcg./ml.)
(§9) The compounds were prepared in 0.01% phosphate buffer. BL-S640 was used a
(§10) standard for all compounds.

[22] = Mouse blood levels after PO administration; format: in vivo; details: PO 100 mg./kg.
Method: ______________________________________
Mouse Blood Levels after PO
Administration of 100 mg./kg. Body Weight
The compounds were prepared in Tween-CMC. BL-S640 was used as standard fo

[23] = Urinary recovery after IM administration to rats; format: in vivo; details: rat, urine, read-out: Urinary recovery, percentage of administered dose recovered; for dose excreted at 6 h: 0-6 hr
Method: Urinary Recovery after IM
Administration of 50 and 10 mg./kg. to Rats
as §9, §10

[24] = Paper chromatograms of rat urine for antibiotically active metabolites after IM administration; format: in vivo; details: rat urine 0-2 and 2-4 hours; for Antibiotically active spots in urine: paper chromatography system No. 9
Method: Paper chromatograms were run on rat urine collected between 0 and 2 and between 2 and 4 hours, following IM administration of BL-S1052 and BL-S640, for the detection of antibiotically active metabolites using descending chromatography with system No. 9 (butyl acetate:n-butanol:glacial acetic acid:H2 O = 80:15:40:24).

[25] = SMITHA9537, 10^-4 dilution, nutrient broth
[26] = SMITHA9537, +50% serum, 10^-4 dilution
[27] = BX1633, 10^-2 dilution, A9606, BL-S1052 adjusted for 97.5% content of BL-S640, read-out: MIC
[28] = 10 mg/kg, IM 10 mg./kg., 0-24 hr
[29] = 10 mg/kg, IM 10 mg./kg., 6-24 hr
[30] = 50 mg/kg, IM 50 mg./kg., 0-24 hr
[31] = 50 mg/kg, IM 50 mg./kg., 6-24 hr

Row | SMILES | Bio-assay [1] [µg/mg] | MIC [4] [µg/mL] | MIC [5] [µg/mL] | MIC [6] [µg/mL] | MIC [7] [µg/mL] | MIC [8] [µg/mL] | MIC [9] [µg/mL] | MIC [10] [µg/mL] | MIC [11] [µg/mL] | MIC [12] [µg/mL] | MIC [13] [µg/mL] | MIC [14] [µg/mL] | MIC [15, 25] [µg/mL] | MIC [15, 26] [µg/mL] | MIC [16] [µg/mL] | MIC [17] [µg/mL] | MIC [18] [µg/mL] | MIC [19] [µg/mL] | MIC [20, 27] [µg/mL] | concentration at 0.25 h [21] [ng/mL] | further results
1 | O=C(O)C1=C(CSc2c[nH]nn2)CSC2C(N3C(=O)C(c4ccc(O)cc4)NC3c3ccco3)C(=O)N12 (stereo not drawn) [BL-S1052] | 775 to 800 | 0.06 | 0.03 | 2 (≈ 3.7 µM) | 1 (≈ 1.85 µM) | > 125 | 0.5 (≈ 0.925 µM) | 1 (≈ 1.85 µM) | 0.5 (≈ 0.925 µM) | 0.5 (≈ 0.925 µM) | > 125 | 4 (≈ 7.4 µM) | 0.13 (≈ 0.24 µM) | 2 (≈ 3.7 µM) | 0.13 (≈ 0.24 µM) | > 125 | 32 (≈ 59.2 µM) | 32 (≈ 59.2 µM) | 2 (≈ 3.7 µM) | 15100 | solubility [2]: > 400 mg/mL; % Free BL-S640 Present ([3]; 0 hours): 69.2%; % free BL-S640 present at 1 h ([3]; 1 hour): 74.2%; % free BL-S640 present at 2 h ([3]; 2 hours): 94.5%; MIC ([20]; BX1633): 0.25 µg/mL (≈ 0.462 µM); concentration at 0.5 h [21]: 15100 ng/mL; concentration at 1 h [21]: 11500 ng/mL; concentration at 1.5 h [21]: 7800 ng/mL; concentration at 0.5 h [22]: 45200 ng/mL; concentration at 1 h [22]: 48100 ng/mL; concentration at 2 h [22]: 31900 ng/mL; concentration at 3.5 h [22]: 14400 ng/mL; dose excreted at 6 h ([23]; 10 mg/kg, IM 10 mg./kg.): 21.7%; dose excreted at 24 h [23, 28]: 24.1%; dose excreted at 24 h [23, 29]: 2.4%; dose excreted at 6 h ([23]; 50 mg/kg, IM 50 mg./kg.): 40.3%; dose excreted at 24 h [23, 30]: 42.4%; dose excreted at 24 h [23, 31]: 2.1%; Hydrolysis of the derivative to parent compound BL-S640 and its presumed metabolite [24]: complete hydrolysis; Antibiotically active spots in urine [24]: Two spots identically located
2 | N[C@@H](C(=O)N[C@@H]1C(=O)N2C(C(=O)O)=C(CSc3c[nH]nn3)CS[C@H]12)c1ccc(O)cc1 [BL-S640, 7-[D-α-amino-α-(p-hydroxyphenyl)acetamido]-3-(1,2,3-triazol-5-ylthiomethyl)-3-cephem-4-carboxylic acid] |  | 0.06 | 0.03 | 2 (≈ 4.32 µM) | 0.5 (≈ 1.08 µM) | > 125 | 0.5 (≈ 1.08 µM) | 1 (≈ 2.16 µM) | 0.5 (≈ 1.08 µM) | 0.5 (≈ 1.08 µM) | > 125 | 8 (≈ 17.3 µM) | 0.13 (≈ 0.281 µM) | 2 (≈ 4.32 µM) | 0.25 (≈ 0.541 µM) | > 125 | 32 (≈ 69.2 µM) | 32 (≈ 69.2 µM) | 4 (≈ 8.65 µM) | 15700 | MIC ([20]; BX1633, 10^-3 dilution, A9696, BL-S1052 adjusted for 97.5% content of BL-S640, read-out: MIC): 0.25 µg/mL (≈ 0.541 µM); concentration at 0.5 h [21]: 13200 ng/mL; concentration at 1 h [21]: 9500 ng/mL; concentration at 1.5 h [21]: 6800 ng/mL; concentration at 0.5 h [22]: 53400 ng/mL; concentration at 1 h [22]: 45400 ng/mL; concentration at 2 h [22]: 27200 ng/mL; concentration at 3.5 h [22]: 10700 ng/mL; dose excreted at 6 h ([23]; 10 mg/kg, IM 10 mg./kg.): 24.3%; dose excreted at 24 h [23, 28]: 25.7%; dose excreted at 24 h [23, 29]: 1.4%; dose excreted at 6 h ([23]; 50 mg/kg, IM 50 mg./kg.): 44.5%; dose excreted at 24 h [23, 30]: 47.2%; dose excreted at 24 h [23, 31]: 2.7%; Antibiotically active spots in urine [24]: Two spots identically located
3 | NC(C(=O)NC1C(=O)N2C(C(=O)O)=C(CSc3c[nH]nn3)CSC12)c1ccc(O)cc1 [7-[D-α-amino-α-(p-hydroxyphenyl)acetamido]-3-(1,2,3-triazol-5-ylthiomethyl)-3-cephem-4-carboxylic acid methanol solvate] | 850 to 900 |  |  |  |  |  |  |  |  |  |  |  |  |  |  |  |  |  |  |  | 
